# Measurements as given in ChEMBL document CHEMBL3352123, “Structure activity relationship study of curcumin analogues toward the amyloid-beta aggregation inhibitor” (Bioorg Med Chem Lett, 2014).
# Key:
# [1] = biological target: Amyloid-beta precursor protein (Homo sapiens) (UniProt P05067); assay: Inhibition of amyloid beta-42 self-aggregation (unknown origin) at 25 uM after 20 hrs by ThT fluorescence assay
# [2] = Aqueous solubility of the compound after 12 hrs by shake-flask method; format: physicochemical; details: buffer
# Amyloid-beta precursor protein (Homo sapiens), sequence (P05067 whole entry): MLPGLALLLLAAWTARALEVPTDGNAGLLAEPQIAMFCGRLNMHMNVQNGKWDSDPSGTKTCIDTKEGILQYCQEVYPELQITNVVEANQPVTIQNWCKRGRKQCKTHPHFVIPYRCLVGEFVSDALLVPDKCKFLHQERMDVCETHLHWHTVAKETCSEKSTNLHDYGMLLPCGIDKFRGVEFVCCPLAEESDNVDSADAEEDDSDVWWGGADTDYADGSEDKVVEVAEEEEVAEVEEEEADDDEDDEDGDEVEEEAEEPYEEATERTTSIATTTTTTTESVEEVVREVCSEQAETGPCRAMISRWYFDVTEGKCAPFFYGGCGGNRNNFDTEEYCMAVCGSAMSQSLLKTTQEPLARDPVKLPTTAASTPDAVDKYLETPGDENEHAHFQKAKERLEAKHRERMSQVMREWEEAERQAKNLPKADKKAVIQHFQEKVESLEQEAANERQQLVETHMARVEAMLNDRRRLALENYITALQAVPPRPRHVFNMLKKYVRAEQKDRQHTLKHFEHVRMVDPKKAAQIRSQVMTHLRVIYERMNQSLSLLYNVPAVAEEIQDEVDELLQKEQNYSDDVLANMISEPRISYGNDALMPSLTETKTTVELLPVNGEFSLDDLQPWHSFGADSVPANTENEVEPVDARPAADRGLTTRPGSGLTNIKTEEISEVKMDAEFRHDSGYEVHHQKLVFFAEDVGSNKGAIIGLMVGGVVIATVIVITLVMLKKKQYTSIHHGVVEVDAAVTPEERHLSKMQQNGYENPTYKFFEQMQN
inhibition [1] [%],solubility thermodynamic at 12 h [2] [µM],SMILES
89,0.66,O=C(/C=C/c1ccc(O)cc1)CC(=O)/C=C/c1ccc(O)c(O)c1
90,98,Oc1ccc(/C=C/c2cc(/C=C/c3ccc(O)c(O)c3)[nH]n2)cc1O
80,,O=C(/C=C/c1ccccc1O)CC(=O)/C=C/c1ccccc1O
100,5.4,COc1c(O)cc(/C=C/C(=O)CC(=O)/C=C/c2ccc(O)c(O)c2)cc1O
100,0.12,COc1ccccc1/C=C/C(=O)CC(=O)/C=C/c1ccc(O)c(O)c1
75,,O=C(/C=C/c1ccc(O)cc1)CC(=O)/C=C/c1ccc(O)cc1
97,,O=C(/C=C/c1cccc([N+](=O)[O-])c1)CC(=O)/C=C/c1ccc(O)c(O)c1
96,,N#Cc1cccc(/C=C/C(=O)CC(=O)/C=C/c2ccc(O)c(O)c2)c1
79,,O=C(/C=C/c1cccc(O)c1)CC(=O)/C=C/c1cccc(O)c1
47,16,Oc1ccc(/C=C/c2cc(/C=C/c3ccccc3O)[nH]n2)cc1O
,10,Oc1cccc(/C=C/c2cc(/C=C/c3ccc(O)c(O)c3)n[nH]2)c1
30,12,COc1cc(/C=C/C(=O)C(C)(C)C(=O)/C=C/c2ccc(O)c(OC)c2)ccc1O
0,,COc1ccc(/C=C/C(=O)/C=C(O)/C=C/c2ccc(OC)c(OC)c2)cc1OC
95,0.009,COc1ccc(/C=C/C(=O)CC(=O)/C=C/c2ccc(O)c(O)c2)cc1
73,47,O=C(/C=C/c1cc(O)c(O)c(O)c1)CC(=O)/C=C/c1ccccc1O
99,6.2,O=C(/C=C/c1cccc(O)c1)CC(=O)/C=C/c1ccc(O)c(O)c1
100,50,O=C(/C=C/c1ccc(O)c(O)c1)CC(=O)/C=C/c1cc(O)c(O)c(O)c1
80,0.19,COc1cc(/C=C/C(=O)CC(=O)/C=C/c2ccc(O)c(OC)c2)ccc1O [CURCUMIN]
46,6.2,O=C(/C=C/c1cc(O)c(O)c(O)c1)CC(=O)/C=C/c1cc(O)c(O)c(O)c1
100,31,O=C(/C=C/c1ccc(O)c(O)c1)CC(=O)/C=C/c1ccccc1O
99,2.4,O=C(/C=C/c1ccc(O)c(O)c1)CC(=O)/C=C/c1ccc(O)c(O)c1 [DIDEMETHYLCURCUMIN]
95,,COc1cc(/C=C/C(=O)CC(=O)/C=C/c2ccc(O)c(O)c2)cc(OC)c1OC
95,0.11,COc1cccc(/C=C/C(=O)CC(=O)/C=C/c2ccc(O)c(O)c2)c1
51,1.2,COc1cc(/C=C/c2cc(/C=C/c3ccc(O)c(OC)c3)[nH]n2)ccc1O [CURCUMIN PYRAZOLE]
